The text below walks through data of patent US8053627B2, “Methods for treating demyelination disorders” (University of Chicago, priority 2005, dated 2011).

In the assay the test system is rat oligodendrocytes. As to the kind of experiment: Cultured rat oligodendrocytes treated with recombinant rat IFN-γ. Format: cell-based. Here is the method: To test whether apoptosis of oligodendrocytes that is induced by INF-γ affects ER stress, the effect on the morphology, the degree of apoptosis and the expression of ER markers was studied in a culture of oligodendrocyte precursor cells (OPC). Oligodendrocyte progenitors were cultured from neonatal rat brains (Baerwald, et al. (1998) J. Neurosci Res. 52: 230-239). A mixed glial culture was grown in flasks in medium containing 10% fetal bovine serum (FBS), and when the astrocyte layer became confluent (10-14 days), oligodendrocyte progenitors were separated from astrocytes and microglia using an orbital shaker. Cells, greater than 95% of which were A2B5 positive, GFAP negative and CD11b negative, were cultured in 0.5% FBS containing medium, which also contained PDGF (10 ng/ml) and FGF (5 ng/ml) (both from R&D Systems, Minneapolis, Minn.). Then cells were switched to 0.5% FBS medium without PDGF and FGF for differentiation. After 5 days in the differentiating medium, approximately 40% of cells were positive for myelin protein 2′3′-cyclic nucleotide 3′-phosphodiestaerase (CNP). 70 U/ml recombinant rat IFN-γ (Calbiochem, La Jolla, Calif.) was added to the cells that had been allowed to differentiation for 5 days. […] To examine the oligodendroglial response to general ER stress-inducing agents, progenitor cells that had been cultured in differentaition medium for 5 or 7 days were treated with 2 μg/ml of tunicamycin (Sigma Aldrich) for 6 hours.
The level of apoptosis of the OPC cells was determined by double staining CNP (1:200; Sternberger Monoclonals, Lutherville, Md.) and TUNEL using the ApopTag Kit (Serologicals Corp., Norcross, Calif.) and following the manufacturer's instructions. Apoptosis was also evaluated by measuring the activity of caspase-3 in oligodendrocyte lysates using the Fluorimetric Caspase 3 Assay Kit (Sigma, St. Louis, Mo.), according to the manufacturer's instructions.
To determine whether INF-γ affects ER function, the RNA expression of ER markers binding immunoglobulin protein (BIP), CAAT enhancer binding protein homologous protein (CHOP), and caspase 12 was determined using real time PCR. RNA was isolated from cultured cells and mice brain using Trizol reagent (Invitrogen, Carlsbad, Calif.) and treated with DNAaseI (Invitrogen) to eliminate genomic DNA. Reverse transcription was performed using Superscript First Strand Synthesis System for RT-PCR kit (Invitrogen). Real-time PCR was performed with iQ Supermix (Bio-Rad, Hercules, Calif.) on a Bio-Rad iQ real-time PCR detection system (Bio-Rad). The following primers and probes (Integrated DNA Technologies Inc., Coralville, Iowa) for real-time PCR were used: mouse CHOP sense primer […] (SEQ ID NO: 34); mouse CHOP antisense primer […] (SEQ ID NO: 35); CHOP probe […] (SEQ ID NO: 36); mouse BIP sense primer […] (SEQ I DNO: 31); mouse BIP antisense primer […] (SEQ ID NO: 32); BIP probe […] (SEQ ID NO: 33); mouse caspase 12 sense primer […] (SEQ ID NO: 37); and mouse caspase antisense primer […] (SEQ ID NO: 38).
To determine the effect of INF-γ on the level of phosphorylated eIF-2α and caspase 12 proteins, western blot analysis was performed using the following antibodies anti-eIF-2α (1:500; Santa Cruz), anti-p-eIF-2α (1:1000, Cell signaling Technology), anti-caspase-12 (1:500; Santa Cruz) and anti-actin (1:1000; Sigma, St Louis, Mo.), and according to the following protocol. […]

Turning to “IFN-γ: pleotropic cytokine secreted by activated T lymphocytes and natural killer cells; delivered to the CNS by transgene or added as recombinant protein”, for the setting “70 U/ml IFN-γ”, the “caspase-3 activity in cell lysates” value was “markedly increased”, the “caspase-12 expression (real-time PCR)” value was “induction of caspase-12 was observed” and the “level of phosphorylated eIF-2α (Western blot)” value was “significantly elevated”. Moreover, the “apoptosis (TUNEL and CNP double labeling)” value (70 U/ml IFN-γ for 48 h) was “induced apoptosis in a significant number of oligodendrocytes”. In addition, for the setting “70 U/ml IFN-γ for 48 h, cells differentiated 5 days”, the cell morphology result is reported as “abnormal morphological changes”. Besides, the “level of the active fragment of caspase-12 (Western blot)” value (after 48 h of IFN-γ treatment) is listed as “strongly elevated”.
